The source of these data is ChEMBL document CHEMBL1144513, “Synthesis and SAR study of novel 7-(pyridinium-3-yl)-carbonyl imidazo[5,1-b]thiazol-2-yl carbapenems” (2007).

Converted amounts (≈) assume the structure as drawn. Where only a bound is given, the exact number is not on record here.

One test concerns Staphylococcus aureus. Briefly: Antibacterial activity against Staphylococcus aureus 209P JC1 by agar dilution method. It is filed as functional. For orientation: In agar dilution, organisms are placed on agar that contains the substance at set levels.
Turning to `COCc1nc(C(=O)c2ccc[n+](CC(N)=O)c2)c2sc(C3=C(C(=O)[O-])N4C(=O)[C@H]([C@@H](C)O)[C@H]4[C@H]3C)cn12`, the MIC was 0.031 µg/mL (≈ 0.0575 µM).
On the same count and under the same terms, in the case of `C[C@@H](O)[C@H]1C(=O)N2C(C(=O)O)=C(c3cn4cnc(C(=O)C5CCCCN5)c4s3)[C@H](C)[C@H]12` (some centres not stated) it was 0.016 µg/mL (≈ 0.036 µM); in that of `C[C@@H](O)[C@H]1C(=O)N2C(C(=O)O)=C(c3cn4cnc(C(=O)c5cccnc5)c4s3)[C@H](C)[C@H]12`, not above 0.008 µg/mL.
In turn, `C[C@@H](O)[C@H]1C(=O)N2C(C(=O)O)=C(c3cn4cnc(C(=O)C5CCNCC5)c4s3)[C@H](C)[C@H]12` returned an MIC of 0.008 µg/mL (≈ 0.018 µM).

A further test has as its system Staphylococcus aureus. Put plainly: Antibacterial activity against methicillin-resistant Staphylococcus aureus M126 by agar dilution method. The format is functional.
As for `COCc1nc(C(=O)c2ccc[n+](CC(N)=O)c2)c2sc(C3=C(C(=O)[O-])N4C(=O)[C@H]([C@@H](C)O)[C@H]4[C@H]3C)cn12`, the MIC was 2 µg/mL (≈ 3.71 µM).
On the same count and under the same terms, in the case of `C[C@@H](O)[C@H]1C(=O)N2C(C(=O)O)=C(c3cn4cnc(C(=O)C5CCCCN5)c4s3)[C@H](C)[C@H]12` (some centres not stated) it was 1 µg/mL (≈ 2.25 µM); in that of `C[C@@H](O)[C@H]1C(=O)N2C(C(=O)O)=C(c3cn4cnc(C(=O)c5cccnc5)c4s3)[C@H](C)[C@H]12`, 1 µg/mL (≈ 2.28 µM).
In turn, `C[C@@H](O)[C@H]1C(=O)N2C(C(=O)O)=C(c3cn4cnc(C(=O)C5CCNCC5)c4s3)[C@H](C)[C@H]12` returned an MIC of 1 µg/mL (≈ 2.25 µM).

The next test relates to Staphylococcus aureus. Put plainly: Antibacterial activity against carbapenem and methicillin-resistant Staphylococcus aureus M126HR by agar dilution method. It is filed as functional.
Turning to `COCc1nc(C(=O)c2ccc[n+](CC(N)=O)c2)c2sc(C3=C(C(=O)[O-])N4C(=O)[C@H]([C@@H](C)O)[C@H]4[C@H]3C)cn12`, the MIC is 4 µg/mL (≈ 7.41 µM).
The same measure, in the same setting: in the case of `C[C@@H](O)[C@H]1C(=O)N2C(C(=O)O)=C(c3cn4cnc(C(=O)C5CCCCN5)c4s3)[C@H](C)[C@H]12` (some centres not stated) it was 4 µg/mL (≈ 9 µM); in that of `C[C@@H](O)[C@H]1C(=O)N2C(C(=O)O)=C(c3cn4cnc(C(=O)c5cccnc5)c4s3)[C@H](C)[C@H]12`, 4 µg/mL (≈ 9.12 µM).
The same measure, in the same setting: in the case of `C[C@@H](O)[C@H]1C(=O)N2C(C(=O)O)=C(c3cn4cnc(C(=O)C5CCNCC5)c4s3)[C@H](C)[C@H]12` it was 4 µg/mL (≈ 9 µM).

The subject of the next test is Streptococcus pneumoniae. Put plainly: Antibacterial activity against penicillin-resistant Streptococcus pneumoniae KK133 by agar dilution method. It is filed as functional.
The molecule `COCc1nc(C(=O)c2ccc[n+](CC(N)=O)c2)c2sc(C3=C(C(=O)[O-])N4C(=O)[C@H]([C@@H](C)O)[C@H]4[C@H]3C)cn12` gave an MIC of 0.063 µg/mL (≈ 0.117 µM).
On the same count and under the same terms, the figure for `C[C@@H](O)[C@H]1C(=O)N2C(C(=O)O)=C(c3cn4cnc(C(=O)C5CCCCN5)c4s3)[C@H](C)[C@H]12` (some centres not stated) is 0.125 µg/mL (≈ 0.281 µM).
Turning to `C[C@@H](O)[C@H]1C(=O)N2C(C(=O)O)=C(c3cn4cnc(C(=O)c5cccnc5)c4s3)[C@H](C)[C@H]12`, the MIC was 0.031 µg/mL (≈ 0.0707 µM).
`C[C@@H](O)[C@H]1C(=O)N2C(C(=O)O)=C(c3cn4cnc(C(=O)C5CCNCC5)c4s3)[C@H](C)[C@H]12` gave an MIC of 0.063 µg/mL (≈ 0.142 µM).

For a further test, the system named is Escherichia coli. Put plainly: Antibacterial activity against Escherichia coli NIHJ JC2 by agar dilution method. The format is functional.
`COCc1nc(C(=O)c2ccc[n+](CC(N)=O)c2)c2sc(C3=C(C(=O)[O-])N4C(=O)[C@H]([C@@H](C)O)[C@H]4[C@H]3C)cn12` gave an MIC of 8 µg/mL (≈ 14.8 µM).
In the case of `C[C@@H](O)[C@H]1C(=O)N2C(C(=O)O)=C(c3cn4cnc(C(=O)C5CCCCN5)c4s3)[C@H](C)[C@H]12` (some centres not stated), the MIC was 0.125 µg/mL (≈ 0.281 µM).
Same read-out and setting: the figure for `C[C@@H](O)[C@H]1C(=O)N2C(C(=O)O)=C(c3cn4cnc(C(=O)c5cccnc5)c4s3)[C@H](C)[C@H]12` is 1 µg/mL (≈ 2.28 µM); for `C[C@@H](O)[C@H]1C(=O)N2C(C(=O)O)=C(c3cn4cnc(C(=O)C5CCNCC5)c4s3)[C@H](C)[C@H]12` it is 0.063 µg/mL (≈ 0.142 µM).

The next test has as its system Klebsiella pneumoniae. Briefly: Antibacterial activity against Klebsiella pneumoniae GN69 by agar dilution method. The format is functional.
In the case of `COCc1nc(C(=O)c2ccc[n+](CC(N)=O)c2)c2sc(C3=C(C(=O)[O-])N4C(=O)[C@H]([C@@H](C)O)[C@H]4[C@H]3C)cn12`, the MIC was found to be 4 µg/mL (≈ 7.41 µM).
On the same count and under the same terms, the figure for `C[C@@H](O)[C@H]1C(=O)N2C(C(=O)O)=C(c3cn4cnc(C(=O)C5CCCCN5)c4s3)[C@H](C)[C@H]12` (some centres not stated) is 0.25 µg/mL (≈ 0.562 µM); for `C[C@@H](O)[C@H]1C(=O)N2C(C(=O)O)=C(c3cn4cnc(C(=O)c5cccnc5)c4s3)[C@H](C)[C@H]12` it is 2 µg/mL (≈ 4.56 µM).
On the same count and under the same terms, the figure for `C[C@@H](O)[C@H]1C(=O)N2C(C(=O)O)=C(c3cn4cnc(C(=O)C5CCNCC5)c4s3)[C@H](C)[C@H]12` is 0.125 µg/mL (≈ 0.281 µM).

In another test the test system is Moraxella catarrhalis. Briefly: Antibacterial activity against Moraxella catarrhalis W-0500 by agar dilution method. It is filed as functional.
In the case of `COCc1nc(C(=O)c2ccc[n+](CC(N)=O)c2)c2sc(C3=C(C(=O)[O-])N4C(=O)[C@H]([C@@H](C)O)[C@H]4[C@H]3C)cn12`, the MIC was 0.031 µg/mL (≈ 0.0575 µM).
Regarding `C[C@@H](O)[C@H]1C(=O)N2C(C(=O)O)=C(c3cn4cnc(C(=O)C5CCCCN5)c4s3)[C@H](C)[C@H]12` (some centres not stated), the MIC is 0.063 µg/mL (≈ 0.142 µM).
The same measure, in the same setting: in the case of `C[C@@H](O)[C@H]1C(=O)N2C(C(=O)O)=C(c3cn4cnc(C(=O)c5cccnc5)c4s3)[C@H](C)[C@H]12` it was 0.016 µg/mL (≈ 0.0365 µM); in that of `C[C@@H](O)[C@H]1C(=O)N2C(C(=O)O)=C(c3cn4cnc(C(=O)C5CCNCC5)c4s3)[C@H](C)[C@H]12`, 0.031 µg/mL (≈ 0.0697 µM).

The next test deals with Haemophilus influenzae. Briefly: Antibacterial activity against beta-lactamase-negative ampicillin-resistant Haemophilus influenzae 870 by agar dilution method. It is filed as functional.
`COCc1nc(C(=O)c2ccc[n+](CC(N)=O)c2)c2sc(C3=C(C(=O)[O-])N4C(=O)[C@H]([C@@H](C)O)[C@H]4[C@H]3C)cn12` gave an MIC of 0.063 µg/mL (≈ 0.117 µM).
Same read-out and setting: the figure for `C[C@@H](O)[C@H]1C(=O)N2C(C(=O)O)=C(c3cn4cnc(C(=O)C5CCCCN5)c4s3)[C@H](C)[C@H]12` (some centres not stated) is 0.25 µg/mL (≈ 0.562 µM).
Regarding `C[C@@H](O)[C@H]1C(=O)N2C(C(=O)O)=C(c3cn4cnc(C(=O)c5cccnc5)c4s3)[C@H](C)[C@H]12`, the MIC worked out at 0.031 µg/mL (≈ 0.0707 µM).
Still for that read-out and setting: in the case of `C[C@@H](O)[C@H]1C(=O)N2C(C(=O)O)=C(c3cn4cnc(C(=O)C5CCNCC5)c4s3)[C@H](C)[C@H]12` it was 0.063 µg/mL (≈ 0.142 µM).
